Measured values as given in US20120294879A1, “CONSENSUS SEQUENCE FOR INFLUENZA A VIRUS” (priority 2009, published 2012).

Key:
[1] = target: HLA-DR3 (HLA-DRA*0101 and -DRB1*0301), as expressed in HLA-DR3 transgenic mice (human); test: cell-based or functional assay
[2] = target: HLA-DR4 (HLA-DRA*0101 and -DRB1*0401), as expressed in HLA-DR4 transgenic mice (human); test: cell-based or functional assay
[3] = system: splenocytes of HLA-A24 (A*2402) transgenic mice; type: cell-based; design: key to A24: average IFN-γ spots forming cells per million splenocytes: — represents no positive ELISpot response
[4] = system: splenocytes of HLA-B7 (B*0702) transgenic mice; type: cell-based; design: key to B7: average IFN-γ spots forming cells per million splenocytes: — represents no positive ELISpot response
[5] = system: splenocytes of HLA-DR2 (DRB1*1501) transgenic mice; type: cell-based; design: key to DR2: average IFN-γ spots forming cells per million splenocytes: — represents no positive ELISpot response
[6] = system: splenocytes of HLA-DR3 (DRB1*0301) transgenic mice; type: cell-based; design: key to DR3: average IFN-γ spots forming cells per million splenocytes: — represents no positive ELISpot response
[7] = system: splenocytes of HLA-DR4 (DRB1*0401) transgenic mice; type: cell-based; design: key: — represents no positive ELISpot response

M1 169-185 peptide of influenza virus A/New York/348/2003 (H1N1)
IFN-γ ELISpot at 10 µg/ml peptide, splenocytes of immunized HLA transgenic mice [1]: 120 | lowest concentration of peptide giving positive ELISpot response [1]: 0.1 µg/mL

M1 175-191 peptide of influenza virus A/New York/348/2003 (H1N1)
IFN-γ ELISpot at 10 µg/ml peptide, splenocytes of immunized HLA transgenic mice [2]: 165 | lowest concentration of peptide giving positive ELISpot response [2]: 0.1 µg/mL

M1 181-197 peptide of influenza virus A/New York/348/2003 (H1N1)
IFN-γ ELISpot at 10 µg/ml peptide, splenocytes of immunized HLA transgenic mice [2]: 115 | lowest concentration of peptide giving positive ELISpot response [2]: 1 µg/mL

NP 7-23 peptide of influenza virus A/New York/348/2003 (H1N1)
IFN-γ ELISpot at 10 µg/ml peptide, splenocytes of immunized HLA transgenic mice [2]: 52 | lowest concentration of peptide giving positive ELISpot response [2]: 0.1 µg/mL

NP 37-53 peptide of influenza virus A/New York/348/2003 (H1N1)
IFN-γ ELISpot at 10 µg/ml peptide, splenocytes of immunized HLA transgenic mice [1]: 66 | lowest concentration of peptide giving positive ELISpot response [1]: 1 µg/mL

NP 73-89 peptide of influenza virus A/New York/348/2003 (H1N1)
IFN-γ ELISpot at 10 µg/ml peptide, splenocytes of immunized HLA transgenic mice [2]: 121 | lowest concentration of peptide giving positive ELISpot response [2]: 0.1 µg/mL

NP 103-119 peptide of influenza virus A/New York/348/2003 (H1N1)
IFN-γ ELISpot at 10 µg/ml peptide, splenocytes of immunized HLA transgenic mice [1]: 614 | lowest concentration of peptide giving positive ELISpot response [1]: 0.1 µg/mL

NP 109-125 peptide of influenza virus A/New York/348/2003 (H1N1)
IFN-γ ELISpot at 10 µg/ml peptide, splenocytes of immunized HLA transgenic mice [1]: 501 | lowest concentration of peptide giving positive ELISpot response [1]: 0.1 µg/mL

NP 408-424 peptide of influenza virus A/New York/348/2003 (H1N1)
IFN-γ ELISpot at 10 µg/ml peptide, splenocytes of immunized HLA transgenic mice [1]: 41 | lowest concentration of peptide giving positive ELISpot response [1]: 10 µg/mL

PA 126-142 peptide of influenza virus A/New York/348/2003 (H1N1)
IFN-γ ELISpot at 10 µg/ml peptide, splenocytes of immunized HLA transgenic mice [2]: 37 | lowest concentration of peptide giving positive ELISpot response [2]: 0.1 µg/mL

PA 132-148 peptide of influenza virus A/New York/348/2003 (H1N1)
IFN-γ ELISpot at 10 µg/ml peptide, splenocytes of immunized HLA transgenic mice [2]: 41 | lowest concentration of peptide giving positive ELISpot response [2]: 0.1 µg/mL

PA 558-574 peptide of influenza virus A/New York/348/2003 (H1N1)
IFN-γ ELISpot at 10 µg/ml peptide, splenocytes of immunized HLA transgenic mice [2]: 114 | lowest concentration of peptide giving positive ELISpot response [2]: 0.1 µg/mL

PB1 31-47 peptide of influenza virus A/New York/348/2003 (H1N1)
IFN-γ ELISpot at 10 µg/ml peptide, splenocytes of immunized HLA transgenic mice [2]: 106 | lowest concentration of peptide giving positive ELISpot response [2]: 0.1 µg/mL

PB1 37-53 peptide of influenza virus A/New York/348/2003 (H1N1)
IFN-γ ELISpot at 10 µg/ml peptide, splenocytes of immunized HLA transgenic mice [2]: 125 | lowest concentration of peptide giving positive ELISpot response [2]: 0.1 µg/mL

PB1 120-136 peptide of influenza virus A/New York/348/2003 (H1N1)
IFN-γ ELISpot at 10 µg/ml peptide, splenocytes of immunized HLA transgenic mice [1]: 142 | lowest concentration of peptide giving positive ELISpot response [1]: 0.1 µg/mL

PB1 126-142 peptide of influenza virus A/New York/348/2003 (H1N1)
IFN-γ ELISpot at 10 µg/ml peptide, splenocytes of immunized HLA transgenic mice [1]: 78 | lowest concentration of peptide giving positive ELISpot response [1]: 0.1 µg/mL

PB1 340-356 peptide of influenza virus A/New York/348/2003 (H1N1)
IFN-γ ELISpot at 10 µg/ml peptide, splenocytes of immunized HLA transgenic mice [1]: 175 | lowest concentration of peptide giving positive ELISpot response [1]: 0.1 µg/mL

PB1 471-487 peptide of influenza virus A/New York/348/2003 (H1N1)
IFN-γ ELISpot at 10 µg/ml peptide, splenocytes of immunized HLA transgenic mice [1]: 116 | lowest concentration of peptide giving positive ELISpot response [1]: 0.1 µg/mL

PB1 507-523 peptide of influenza virus A/New York/348/2003 (H1N1)
IFN-γ ELISpot at 10 µg/ml peptide, splenocytes of immunized HLA transgenic mice [2]: 274 | lowest concentration of peptide giving positive ELISpot response [2]: 0.1 µg/mL

PB1 656-672 peptide of influenza virus A/New York/348/2003 (H1N1)
IFN-γ ELISpot at 10 µg/ml peptide, splenocytes of immunized HLA transgenic mice [2]: 59 | lowest concentration of peptide giving positive ELISpot response [2]: 0.1 µg/mL

PB1 680-696 peptide of influenza virus A/New York/348/2003 (H1N1)
IFN-γ ELISpot at 10 µg/ml peptide, splenocytes of immunized HLA transgenic mice [1]: 181

PB2 42-58 peptide of influenza virus A/New York/348/2003 (H1N1)
IFN-γ ELISpot at 10 µg/ml peptide, splenocytes of immunized HLA transgenic mice [2]: 166 | lowest concentration of peptide giving positive ELISpot response [2]: 0.1 µg/mL

PB2 48-64 peptide of influenza virus A/New York/348/2003 (H1N1)
IFN-γ ELISpot at 10 µg/ml peptide, splenocytes of immunized HLA transgenic mice [2]: 161 | lowest concentration of peptide giving positive ELISpot response [2]: 0.1 µg/mL

PB2 54-70 peptide of influenza virus A/New York/348/2003 (H1N1)
IFN-γ ELISpot at 10 µg/ml peptide, splenocytes of immunized HLA transgenic mice [1]: 499 | lowest concentration of peptide giving positive ELISpot response [1]: 0.1 µg/mL

PB2 126-142 peptide of influenza virus A/New York/348/2003 (H1N1)
IFN-γ ELISpot at 10 µg/ml peptide, splenocytes of immunized HLA transgenic mice [2]: 316 | lowest concentration of peptide giving positive ELISpot response [2]: 0.1 µg/mL

PB2 132-148 peptide of influenza virus A/New York/348/2003 (H1N1)
IFN-γ ELISpot at 10 µg/ml peptide, splenocytes of immunized HLA transgenic mice [2]: 311 | lowest concentration of peptide giving positive ELISpot response [2]: 0.1 µg/mL

PB2 369-385 peptide of influenza virus A/New York/348/2003 (H1N1)
IFN-γ ELISpot at 10 µg/ml peptide, splenocytes of immunized HLA transgenic mice [2]: 54 | lowest concentration of peptide giving positive ELISpot response [2]: 0.1 µg/mL

PB2 458-474 peptide of influenza virus A/New York/348/2003 (H1N1)
IFN-γ ELISpot at 10 µg/ml peptide, splenocytes of immunized HLA transgenic mice [2]: 238 | lowest concentration of peptide giving positive ELISpot response [2]: 0.1 µg/mL

PVHFRNQVKIRRRVDIN
A24: average IFN-γ spots forming cells per million splenocytes [3]: — | B7: average IFN-γ spots forming cells per million splenocytes [4]: — | DR2: average IFN-γ spots forming cells per million splenocytes [5]: — | DR3: average IFN-γ spots forming cells per million splenocytes [6]: — | DR4: average IFN-γ spots forming cells per million splenocytes [7]: 311 ± 37(0.1) IFN-γ spots forming cells per million splenocytes

RATAILRKATRRLIQLI
A24: average IFN-γ spots forming cells per million splenocytes [3]: — | B7: average IFN-γ spots forming cells per million splenocytes [4]: — | DR2: average IFN-γ spots forming cells per million splenocytes [5]: — | DR3: average IFN-γ spots forming cells per million splenocytes [6]: — | DR4: average IFN-γ spots forming cells per million splenocytes [7]: 54 ± 2(0.1) IFN-γ spots forming cells per million splenocytes

RFLRVRDQRGNVLLSPE
A24: average IFN-γ spots forming cells per million splenocytes [3]: — | B7: average IFN-γ spots forming cells per million splenocytes [4]: 184 ± 3 IFN-γ spots forming cells per million splenocytes | B7: lowest concentration of peptide giving positive ELISpot response in peptide titration [4]: (0.1) μg/ml | DR2: average IFN-γ spots forming cells per million splenocytes [5]: — | DR3: average IFN-γ spots forming cells per million splenocytes [6]: — | DR4: average IFN-γ spots forming cells per million splenocytes [7]: —

RFYRTCKLLGINMSKKK
A24: average IFN-γ spots forming cells per million splenocytes [3]: — | B7: average IFN-γ spots forming cells per million splenocytes [4]: — | DR2: average IFN-γ spots forming cells per million splenocytes [5]: 231 ± 73(1) IFN-γ spots forming cells per million splenocytes | DR2: lowest concentration of peptide giving positive ELISpot response in peptide titration [5]: 231 ± 73(1) μg/ml | DR3: average IFN-γ spots forming cells per million splenocytes [6]: — | DR4: average IFN-γ spots forming cells per million splenocytes [7]: —

RMIGGIGRFYIQMCTEL
A24: average IFN-γ spots forming cells per million splenocytes [3]: 45 ± 5 IFN-γ spots forming cells per million splenocytes | A24: lowest concentration of peptide giving positive ELISpot response in peptide titration [3]: (0.1) μg/ml | B7: average IFN-γ spots forming cells per million splenocytes [4]: — | DR2: average IFN-γ spots forming cells per million splenocytes [5]: — | DR3: average IFN-γ spots forming cells per million splenocytes [6]: — | DR4: average IFN-γ spots forming cells per million splenocytes [7]: —

RMQFSSLTVNVRGSGMR
A24: average IFN-γ spots forming cells per million splenocytes [3]: — | B7: average IFN-γ spots forming cells per million splenocytes [4]: — | DR2: average IFN-γ spots forming cells per million splenocytes [5]: 104 ± 16(0.1) IFN-γ spots forming cells per million splenocytes | DR2: lowest concentration of peptide giving positive ELISpot response in peptide titration [5]: 104 ± 16(0.1) μg/ml | DR3: average IFN-γ spots forming cells per million splenocytes [6]: — | DR4: average IFN-γ spots forming cells per million splenocytes [7]: —

RQTYDWTLNRNQPAATA
A24: average IFN-γ spots forming cells per million splenocytes [3]: — | B7: average IFN-γ spots forming cells per million splenocytes [4]: — | DR2: average IFN-γ spots forming cells per million splenocytes [5]: — | DR3: average IFN-γ spots forming cells per million splenocytes [6]: 78 ± 0(0.1) IFN-γ spots forming cells per million splenocytes | DR3: lowest concentration of peptide giving positive ELISpot response in peptide titration [6]: 78 ± 0(0.1) μg/ml | DR4: average IFN-γ spots forming cells per million splenocytes [7]: —

SHGTGTGYTMDTVNRTH
A24: average IFN-γ spots forming cells per million splenocytes [3]: — | B7: average IFN-γ spots forming cells per million splenocytes [4]: — | DR2: average IFN-γ spots forming cells per million splenocytes [5]: — | DR3: average IFN-γ spots forming cells per million splenocytes [6]: — | DR4: average IFN-γ spots forming cells per million splenocytes [7]: 106 ± 1(0.1) IFN-γ spots forming cells per million splenocytes

SRPMFLYVRTNGTSKIK
A24: average IFN-γ spots forming cells per million splenocytes [3]: — | B7: average IFN-γ spots forming cells per million splenocytes [4]: — | DR2: average IFN-γ spots forming cells per million splenocytes [5]: — | DR3: average IFN-γ spots forming cells per million splenocytes [6]: — | DR4: average IFN-γ spots forming cells per million splenocytes [7]: 114 ± 24(0.1) IFN-γ spots forming cells per million splenocytes

TEKLTITYSSSMMWEIN
A24: average IFN-γ spots forming cells per million splenocytes [3]: — | B7: average IFN-γ spots forming cells per million splenocytes [4]: — | DR2: average IFN-γ spots forming cells per million splenocytes [5]: 151 ± 67(0.1) IFN-γ spots forming cells per million splenocytes | DR2: lowest concentration of peptide giving positive ELISpot response in peptide titration [5]: 151 ± 67(0.1) μg/ml | DR3: average IFN-γ spots forming cells per million splenocytes [6]: — | DR4: average IFN-γ spots forming cells per million splenocytes [7]: —
